In PubChem BioAssay (NCI) one finds TGI and GI50 data, which are given here for nine compounds.

Some test systems named below: HOP-62 NSCLC; NCI/ADR-RES ovarian; T-47D breast; SF-539 CNS; NCI-H522 lung; HL-60(TB) leukemia; HS 578T breast; SK-MEL-5 melanoma; UACC-62 melanoma; OVCAR-4 ovarian.
Assay in all cases: DTP human tumour cell line panel, 48 h

The structures appear in SMILES notation.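 48-hour exposure; five concentrations; linearly interpolated endpoints. Here, GI50 denotes the concentration required for 50% inhibition of growth. TGI: total growth inhibition.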 Where a SMILES comes first, the peptide text is derived from it. [ ]: non-standard residue; d: D form. ξ: configuration not given here. Pentanoyl(2-O,4-OH,5-Cl) = O=C(O)C(O)CC(O)CCl; Ile(3ξ) = CCC(C)[C@H](N)C(=O)O; NMeV = CN[C@H](C(=O)O)C(C)C; NMeA = CN[C@@H](C)C(=O)O; βAla = NCCC(=O)O

The term TGI denotes the concentration giving total growth inhibition. High values mean less potent growth arrest, low ones more potent growth arrest. As for `Clc1ccc(NCNC2Nc3ccccc3N2)cc1Cl`, the TGI with HOP-62 NSCLC is over 100 µM; with NCI/ADR-RES ovarian, over 100 µM; with T-47D breast, over 100 µM; in the experiment with SF-539 CNS, over 100 µM; in the experiment with NCI-H522 lung, 56.2 µM; in the experiment with HL-60(TB) leukemia it was over 100 µM. In addition, the TGI in the experiment on HS 578T breast was over 100 µM; with SK-MEL-5 melanoma, 54.6 µM; in the experiment on UACC-62 melanoma, over 100 µM.
What is called GI50 is the concentration that inhibits growth by half. As to `COc1ccc(-c2cc(=O)c3c(C)ccnc3[nH]2)cc1`, the TGI is 92.4 µM in the experiment with HOP-62 NSCLC; over 100 µM in the experiment on NCI/ADR-RES ovarian; over 100 µM in the experiment with T-47D breast; 72.2 µM with SF-539 CNS; over 100 µM in the experiment with NCI-H522 lung; over 100 µM with OVCAR-4 ovarian. For the same compound, the TGI in the experiment with HL-60(TB) leukemia is 17.3 µM; in the experiment with HS 578T breast it was 77.1 µM; in the experiment with SK-MEL-5 melanoma, 14.7 µM; in the experiment with UACC-62 melanoma it was 32.6 µM. Also, the GI50 in the experiment with HL-60(TB) leukemia was 4.37 µM; in the experiment with SK-MEL-5 melanoma, 3.87 µM.
In the case of `O=C(c1ccccc1)c1nc2ccc(Cl)cc2cc1C(Br)Br`, the concentration for total growth inhibition (TGI) in the experiment on HOP-62 NSCLC was 1.94 µM; in the experiment on NCI/ADR-RES ovarian, 0.505 µM; with T-47D breast, 1.12 µM; with SF-539 CNS, 0.537 µM; with NCI-H522 lung it was 3.68 µM; in the experiment on OVCAR-4 ovarian, 1.41 µM. For the same compound, the TGI with HL-60(TB) leukemia amounted to 1.07 µM; in the experiment on HS 578T breast, 0.59 µM; in the experiment with SK-MEL-5 melanoma, 2.01 µM; in the experiment with UACC-62 melanoma, 2.06 µM.
Turning to `O=c1[nH]c(=O)n(Cc2ccc(C34CC5CC(CC(C5)C3)C4)c(O)c2)cc1F`, the GI50 was 14.6 µM in the experiment with HOP-62 NSCLC; 13 µM in the experiment on NCI/ADR-RES ovarian; 13.6 µM with T-47D breast; 14.7 µM in the experiment on SF-539 CNS; 13.1 µM in the experiment with NCI-H522 lung; 13.8 µM in the experiment with OVCAR-4 ovarian. Also, the GI50 in the experiment with HL-60(TB) leukemia was 3.05 µM; in the experiment with HS 578T breast, 15 µM; with SK-MEL-5 melanoma it was 11.2 µM; in the experiment on UACC-62 melanoma, 6.93 µM. The TGI in the experiment on HOP-62 NSCLC came out at 31.4 µM; in the experiment on NCI/ADR-RES ovarian it was 31.4 µM; in the experiment with T-47D breast, 44.4 µM; with SF-539 CNS, 30.1 µM; in the experiment on NCI-H522 lung, 31.9 µM; in the experiment on OVCAR-4 ovarian, 30.2 µM. Further, the TGI came out at 16 µM in the experiment on HL-60(TB) leukemia, 41.7 µM in the experiment on HS 578T breast, 23.3 µM with SK-MEL-5 melanoma and 20.3 µM in the experiment with UACC-62 melanoma.
As to `CCC(C)[C@@H]1NC(=O)[C@@H]2CCCN2C(=O)C(CC(O)CCl)OC(=O)CCNC(=O)[C@H](C)N(C)C(=O)[C@H](C(C)C)N(C)C1=O` (stereo partly specified) (cyclo([Ile(3ξ)][NMeV][NMeA][βAla][Pentanoyl(2-O,4-OH,5-Cl)]P)), the TGI in the experiment on HOP-62 NSCLC, in the experiment on NCI/ADR-RES ovarian, in the experiment with T-47D breast, with SF-539 CNS, in the experiment with NCI-H522 lung and in the experiment with OVCAR-4 ovarian was over 100 µM throughout. In addition, the TGI with HL-60(TB) leukemia is over 100 µM; in the experiment on HS 578T breast it was over 100 µM; in the experiment on SK-MEL-5 melanoma, 2.29 µM; with UACC-62 melanoma, 7.71 µM.
Take `CCCN1CCC(Oc2cc(Nc3nc(Nc4cccc(F)c4C(N)=O)c4cc[nH]c4n3)c(OC)cc2Cl)CC1`: the GI50 in the experiment with HOP-62 NSCLC is 1.31 µM; in the experiment on NCI/ADR-RES ovarian, 3.73 µM; in the experiment on T-47D breast, 1.32 µM; with SF-539 CNS, 4.13 µM; in the experiment on NCI-H522 lung, 3.98 µM; with OVCAR-4 ovarian, 3.67 µM. The GI50 in the experiment on HL-60(TB) leukemia was 2.54 µM; in the experiment on HS 578T breast, 3.73 µM; with SK-MEL-5 melanoma, 1.23 µM; with UACC-62 melanoma it was 3.61 µM. The TGI in the experiment with HOP-62 NSCLC was 4.36 µM; in the experiment with NCI/ADR-RES ovarian, 8.57 µM; in the experiment with T-47D breast, 3.12 µM; in the experiment on SF-539 CNS it was 8.24 µM; with NCI-H522 lung, 7.9 µM; in the experiment with OVCAR-4 ovarian, 8.05 µM. In addition, the concentration for total growth inhibition (TGI) was determined as 8.31 µM in the experiment on HL-60(TB) leukemia, 10.6 µM in the experiment on HS 578T breast, 2.67 µM in the experiment with SK-MEL-5 melanoma and 7.09 µM in the experiment with UACC-62 melanoma.
For `CCN(CC)CCN1C(=O)C2C3C(C)=CC(OC(C)=O)(CC3C)C2C1=O` (stereo unspecified), the GI50 in the experiment on HOP-62 NSCLC, in the experiment on NCI/ADR-RES ovarian, in the experiment with T-47D breast, in the experiment on SF-539 CNS, in the experiment on NCI-H522 lung and in the experiment on OVCAR-4 ovarian was over 100 µM in each case. Besides, the GI50 in the experiment on HL-60(TB) leukemia is over 100 µM; in the experiment with HS 578T breast, 75.3 µM; in the experiment with SK-MEL-5 melanoma, over 100 µM; in the experiment on UACC-62 melanoma, over 100 µM. The TGI in the experiment on HOP-62 NSCLC, with NCI/ADR-RES ovarian, in the experiment with T-47D breast, in the experiment on SF-539 CNS, in the experiment on NCI-H522 lung and in the experiment with OVCAR-4 ovarian was over 100 µM throughout. In addition, the TGI in the experiment on HL-60(TB) leukemia, in the experiment on HS 578T breast, with SK-MEL-5 melanoma and in the experiment on UACC-62 melanoma was over 100 µM each time.
As for `Clc1cccc(-c2cc(-c3ccc4c(c3)OCCO4)[nH]n2)c1`, the GI50 in the experiment on HOP-62 NSCLC is 2.39 µM; in the experiment with NCI/ADR-RES ovarian it was 1.11 µM; in the experiment on T-47D breast, 3.64 µM; with SF-539 CNS, 6.31 µM; in the experiment with NCI-H522 lung, 1.48 µM; with OVCAR-4 ovarian it was 13.8 µM. Moreover, the GI50 in the experiment on HL-60(TB) leukemia is 4.65 µM; in the experiment on HS 578T breast, 6.67 µM; in the experiment on SK-MEL-5 melanoma it was 5.9 µM; in the experiment with UACC-62 melanoma, 2 µM. Further, the TGI in the experiment with HOP-62 NSCLC was found to be 41.6 µM; in the experiment on NCI/ADR-RES ovarian, 33.8 µM; with T-47D breast, 53.8 µM; in the experiment with SF-539 CNS, 36.1 µM; with NCI-H522 lung it was 37.2 µM; with OVCAR-4 ovarian it was 49.5 µM. Also, the TGI with HL-60(TB) leukemia stood at 53.6 µM; in the experiment with HS 578T breast, 63.3 µM; with SK-MEL-5 melanoma it was 39.1 µM; in the experiment with UACC-62 melanoma, 44.8 µM.
Turning to `CN1CCN(c2cc(F)c(NC3=C(Cl)C(=O)c4ncccc4C3=O)c(F)c2)CC1`, the GI50 in the experiment on HOP-62 NSCLC is 2.06 µM; in the experiment on NCI/ADR-RES ovarian, 2.4 µM; in the experiment with T-47D breast it was 1.82 µM; with SF-539 CNS it was 1.52 µM; in the experiment on NCI-H522 lung it was 0.559 µM; in the experiment with OVCAR-4 ovarian, 1.35 µM. The GI50 is 1.65 µM with HL-60(TB) leukemia, 2.02 µM in the experiment on HS 578T breast, 1.66 µM in the experiment on SK-MEL-5 melanoma and 1.67 µM in the experiment on UACC-62 melanoma. The total growth inhibition concentration (TGI) in the experiment on HOP-62 NSCLC came out at 5.18 µM; with NCI/ADR-RES ovarian it was 6.53 µM; in the experiment with T-47D breast, 4.61 µM; with SF-539 CNS, 2.91 µM; in the experiment on NCI-H522 lung, 2.26 µM; in the experiment on OVCAR-4 ovarian, 2.65 µM. For the same compound, the TGI with HL-60(TB) leukemia stood at 5.46 µM; with HS 578T breast it was 5.67 µM; with SK-MEL-5 melanoma, 3.13 µM; in the experiment on UACC-62 melanoma, 3.17 µM.
